In patent US6258800A, “Prodrugs of benzofuranylethyl carbamate NK1 antagonists” (Warner-Lambert Company, priority 2000, dated 2001):
Counter-ions that a name gives are not always drawn.

Legend:
Aqueous solubility = format: physicochemical; details: water
[1] = Conversion of prodrug to parent compound 1 after IV dosing (plasma HPLC); format: in vivo; details: male Wistar rats; for metabolised at 24 h: rat, n=3, slow IV bolus about 5 mg/kg parent-equivalent, parent compound 1 in plasma up to 24 h; for conversion to parent compound 1 in vivo (in words): IV administration
Source text: Male Wistar rats weighing 244 to 390 g were used in the in vivo experiments. The day before the experiment, the rats were surgically prepared. Rats were anesthetized with ether, and the right jugular vein was cannulated for intravenous dosing and/or systemic sampling. The cannula was exteriorized at the nape of the rat between the shoulder blades. The animals were allowed to recover overnight from surgery and fasted with water ad libitum.
Dosing solutions of the prodrugs (5, 25, 18, 34, 20c, 20d, 20e, and 20f) were prepared separately in 5% dextrose in water (D5W). Compound 20a was dissolved in 5% ethanol in D5W whereas compound 29 was dissolved in 20% ethanol, 20% polyethylene glycol 400 in D5W. Animals were randomly assigned to groups of three. The prodrug solutions were administered intravenously as a slow bolus at about 5 mg/kg parent-equivalent or orally as a gastric gavage at about 15 mg/kg parent-equivalent (Table 1 on Page 10 contains PO data). The cannula was subsequently rinsed with 1 mL D5W. Systemic blood was sampled predose and at selected times up to 24 hours after dosing. Blood samples (0.5 mL) were collected on ice, heparinized, and immediately centrifuged; then plasma was harvested and stored at -20° C. until analysis by HPLC.
The plasma samples were analyzed by validated HPLC assay for the parent compound 1. Plasma (200 μL) was spiked with 18 μL of internal standard ([2-(1H-indol-3-yl)-1-methyl-1-(1-phenyl-ethylcarbamoyl)-ethyl]-carbimic acid 4-ethyl-benzyl ester; 2.5 μM) and 400 μL acetonitrile (ACN) to precipitate protein. The supernatant was transferred to a clean test tube and evaporated to dryness. The residue was reconstituted in 50:50 ACN:water and injected onto the HPLC.
Detailed bioconversion data often prodrugs is found in Table 1 below.

SMILES	solubility (Aqueous solubility; parent drug) [µg/mL]	metabolised at 24 h [1] [%]	conversion to parent compound 1 in vivo (in words) [1]	aqueous solubility (in words) (Aqueous solubility)	metabolised at 24 h ([1]; in vivo) [%]
C[C@H](NC(=O)[C@@](C)(Cc1c[nH]c2ccccc12)NC(=O)OCc1cc2ccccc2o1)c1ccccc1 [Compound 1, 2-benzofuranylmethyl [R-(R*,S*)]-[1-(1H-indol-3-ylmethyl)-1-methyl-2-oxo-2-[(1-phenylethyl)amino]ethyl]carbamate, reference compound]	< 1	–	–	–	–
C[C@H](NC(=O)[C@@](C)(Cc1cn(P(=O)(O)O)c2ccccc12)NC(=O)OCc1cc2ccccc2o1)c1ccccc1 [Compound 5, {3-[2-(Benzofuran-2-ylmethoxycarbonylamino)-2-(1-phenyl-ethylcarbamoyl)propyl]-indol-1-yl}-phosphonic acid disodium salt]	–	11.7 ± 0.84	–	–	–
C[C@H](NC(=O)[C@@](C)(Cc1cn(C(=O)OCOC(=O)c2ccc(COP(=O)(O)O)cc2)c2ccccc12)NC(=O)OCc1cc2ccccc2o1)c1ccccc1 [Compound 18, 3-[2-(Benzofuran-2-ylmethoxycarbonylamino)-2-(1-phenyl-ethylcarbamoyl)propyl]-indol-1-carboxylic acid phosphonooxymethylbenzoyloxymethyl ester disodium salt]	–	59.5 ± 21.3	highest reconversion	–	–
C[C@H](NC(=O)[C@@](C)(Cc1cn(C(=O)OCOC(=O)c2ccc(CN(C)C)cc2)c2ccccc12)NC(=O)OCc1cc2ccccc2o1)c1ccccc1 [Compound 20a, 3-[2-(Benzofuran-2-ylmethoxycarbonylamino)-2-(1-phenyl-ethylcarbamoyl)-propyl]-indole-1-carboxylic acid 4-dimethylaminomethyl-benzoyloxymethyl ester monohydrochloride salt]	–	86.9 ± 18.6	higher conversion than the phosphate prodrugs	not water-soluble	–
C[C@H](NC(=O)[C@@](C)(Cc1cn(C(=O)OCOC(=O)c2ccc(CN3CCN(C)CC3)cc2)c2ccccc12)NC(=O)OCc1cc2ccccc2o1)c1ccccc1 [Compound 20c, 3-[2-(Benzofuran-2-ylmethoxycarbonylamino)-2-(1-phenyl-ethylcarbamoyl)-propyl]-indole-1-carboxylic acid 4-(4-methyl-piperazin-1-methyl)-benzoyloxymethyl ester dihydrochloride salt]	–	68 ± 5.2	comparable reconversion as (20a)	–	–
C[C@H](NC(=O)[C@@](C)(Cc1cn(C(=O)OCOC(=O)c2ccc(CN3CCN(CCO)CC3)cc2)c2ccccc12)NC(=O)OCc1cc2ccccc2o1)c1ccccc1 [Compound 20d, 3-[2-(Benzofuran-2-ylmethoxycarbonylamino)-2-(1-phenyl-ethylcarbamoyl)-propyl]-indole-1-carboxylic acid 4-[4-(2-hydroxy-ethyl)-piperazin-1-ylmethyl]-benzoyloxymethyl ester dihydrochloride salt]	–	64.2 ± 14.3	comparable reconversion as (20a)	–	–
C[C@H](NC(=O)[C@@](C)(Cc1cn(C(=O)OCOC(=O)c2ccc(CN3CCNCC3)cc2)c2ccccc12)NC(=O)OCc1cc2ccccc2o1)c1ccccc1 [Compound 20e, 3-[2-(Benzofuran-2-ylmethoxycarbonylamino)-2-(1-phenyl-ethylcarbamoyl)-propyl]-indole-1-carboxylic acid 4-piperazin-1-ylmethyl-benzoyloxymethyl ester dihydrochloride salt]	–	88.5 ± 9.2	comparable reconversion as (20a)	–	–
C[C@H](NC(=O)[C@@](C)(Cc1cn(C(=O)OCOC(=O)c2ccc(CN(C)CCN(C)C)cc2)c2ccccc12)NC(=O)OCc1cc2ccccc2o1)c1ccccc1 [Compound 20f, 3-[2-(Benzofuran-2-ylmethoxycarbonylamino)-2-(1-phenyl-ethylcarbamoyl)-propyl]-indole-1-carboxylic acid 4-{[(2-dimethylamino-ethyl)-methyl-amino]-methyl}-benzoyloxymethyl ester dihydrochloride salt]	–	104 ± 38.2	comparable reconversion as (20a)	–	–
C[C@H](NC(=O)[C@@](C)(Cc1cn(C(=O)c2ccccc2COP(=O)(O)O)c2ccccc12)NC(=O)OCc1cc2ccccc2o1)c1ccccc1 [Compound 25, {1-Methyl-1-(1-phenyl-ethylcarbamoyl)-2-[1-(2-phosphonooxymethyl-benzoyl)-1H-indol-3-yl]-ethyl}-carbamic acid benzofuran-2-ylmethyl ester disodium salt]	–	19.9 ± 1.07	–	–	–
Cc1cc(C)c(C(C)(C)CC(=O)n2cc(C[C@@](C)(NC(=O)OCc3cc4ccccc4o3)C(=O)N[C@@H](C)c3ccccc3)c3ccccc32)c(OP(=O)(O)O)c1 [Compound 34, [2-{1-[3-(2,4-Dimethyl-6-phosphonooxy-phenyl)-3-methylbutyryl]-1H-indol-3-yl}-1-methyl-1-(1-phenylethylcarbamoyl)ethyl]carbamic acid benzofuran-2-ylmethyl ester disodium salt]	–	–	lowest bioconversion in vivo	–	9.35 ± 4.12
